Experimental findings from patent US11111247B2, “Pyrazolopyrimidine compounds and uses thereof” (Incyte Corporation, priority 2018, dated 2021) are described below.

Like-named read-outs stand apart in the source and are kept apart here. A value given as a limit tells only on which side of the number the result lay.

The target of one assay is FGFR2 (P) (Homo sapiens (Human), UniProt P21802). Nature of the assay: FGFR Enzymatic Assay, FGFR2 phosphorylated. To be noted: phosphorylated enzyme, ATP near or below Km.
Chain of FGFR2 (P) (P21802 22-821): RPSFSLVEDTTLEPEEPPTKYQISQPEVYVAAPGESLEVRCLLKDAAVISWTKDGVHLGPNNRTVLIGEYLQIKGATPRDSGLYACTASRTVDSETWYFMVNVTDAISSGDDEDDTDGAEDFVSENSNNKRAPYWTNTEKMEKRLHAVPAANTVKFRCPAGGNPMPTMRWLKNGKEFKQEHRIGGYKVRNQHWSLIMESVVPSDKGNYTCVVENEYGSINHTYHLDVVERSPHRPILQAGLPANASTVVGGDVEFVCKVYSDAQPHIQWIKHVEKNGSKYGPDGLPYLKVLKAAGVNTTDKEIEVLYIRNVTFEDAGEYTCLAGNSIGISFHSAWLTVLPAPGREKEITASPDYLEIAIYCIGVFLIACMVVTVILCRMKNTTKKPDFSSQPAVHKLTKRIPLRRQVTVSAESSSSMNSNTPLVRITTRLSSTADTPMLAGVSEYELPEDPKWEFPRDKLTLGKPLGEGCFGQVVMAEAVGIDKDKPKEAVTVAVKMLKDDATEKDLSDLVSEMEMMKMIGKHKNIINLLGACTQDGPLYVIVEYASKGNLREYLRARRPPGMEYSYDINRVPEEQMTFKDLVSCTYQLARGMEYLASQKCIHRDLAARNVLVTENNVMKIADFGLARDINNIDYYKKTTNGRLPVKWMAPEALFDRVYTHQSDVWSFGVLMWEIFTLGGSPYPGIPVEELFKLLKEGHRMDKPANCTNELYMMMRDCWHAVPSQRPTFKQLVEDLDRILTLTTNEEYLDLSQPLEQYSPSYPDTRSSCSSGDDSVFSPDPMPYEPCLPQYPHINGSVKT
A further assay addresses ALK2 (aa 147-end) (Homo sapiens (Human), UniProt Q04771). Nature of the assay: ALK2 HTRF Assay. Type of assay: biochemical. The protocol: The enzymatic assays were conducted in white 384-well polystyrene plates in a final volume of 8 μL. The inhibitors were serially diluted in DMSO and added to the plate wells prior to addition of the other reaction components. The assays were carried out at 25° C. in the assay buffer (50 mM HEPES, pH 7.1, 10% Glycerol, 0.01% Brij50, 10 mM MgCl2, 1 mM EGTA, 5 mM DTT, and 0.01% BSA), containing 50 nM LANCE Ultra ULight™-DNA Topoisomerase 2-alpha peptide (Perkin Elmer TRF0130), and 3 uM, 100 uM or 1 mM ATP (as specified). […] The reaction was read on a PHERAstar FS plate reader (BMG Labtech). IC50 determination was performed by fitting percent control activity versus the log of the inhibitor concentration using the IDBS XLFit and GraphPad Prism 5.0 software.

The target of the next assay is ALK2 (Homo sapiens (Human), UniProt Q04771). The assay can be described thus: ALK2 Cellular Assay (phospho SMAD1 HTRF, BMP-7 stimulated HeLa cells). It counts as cell-based. As to conditions: HeLa cells, 200 ng/ml BMP-7, Phospho SMAD1 (S463/S465) HTRF; read-out: ALK2 Cellular Assay PSMAD. The protocol:
HeLa cells were cultured in MEM media with 10% FBS. […] HeLa cells were plated in 96 well flat bottomed plate at 50,000 cells per well and incubated overnight. Next day, media was removed and 50 μL of fresh complete media was added. 5 μL compound was added to cells (3 μM final concentration at highest) and incubated for 60 min at 37° C. 200 ng/ml BMP-7 was added and incubated for 30 min at 37° C. After incubation, the media was removed, washed 2×PBS, and proceeded with HTRF kit according to Cisbio HTRF kit instructions for measuring the Phospho SMAD1 (S463/S465). Finally, both the donor and acceptor were added into 384 well plates and incubated at room temperature overnight and the HTRF signal was measured via Pherastar the next day.
On the technique in general: In TR-FRET formats the signal depends on donor and acceptor labels being close together.

The target of another assay is FGFR3 (UP) (Homo sapiens (Human), UniProt P22607). Nature of the assay: FGFR Enzymatic Assay, FGFR3 un-phosphorylated.
Chain of FGFR3 (UP) (P22607 23-806): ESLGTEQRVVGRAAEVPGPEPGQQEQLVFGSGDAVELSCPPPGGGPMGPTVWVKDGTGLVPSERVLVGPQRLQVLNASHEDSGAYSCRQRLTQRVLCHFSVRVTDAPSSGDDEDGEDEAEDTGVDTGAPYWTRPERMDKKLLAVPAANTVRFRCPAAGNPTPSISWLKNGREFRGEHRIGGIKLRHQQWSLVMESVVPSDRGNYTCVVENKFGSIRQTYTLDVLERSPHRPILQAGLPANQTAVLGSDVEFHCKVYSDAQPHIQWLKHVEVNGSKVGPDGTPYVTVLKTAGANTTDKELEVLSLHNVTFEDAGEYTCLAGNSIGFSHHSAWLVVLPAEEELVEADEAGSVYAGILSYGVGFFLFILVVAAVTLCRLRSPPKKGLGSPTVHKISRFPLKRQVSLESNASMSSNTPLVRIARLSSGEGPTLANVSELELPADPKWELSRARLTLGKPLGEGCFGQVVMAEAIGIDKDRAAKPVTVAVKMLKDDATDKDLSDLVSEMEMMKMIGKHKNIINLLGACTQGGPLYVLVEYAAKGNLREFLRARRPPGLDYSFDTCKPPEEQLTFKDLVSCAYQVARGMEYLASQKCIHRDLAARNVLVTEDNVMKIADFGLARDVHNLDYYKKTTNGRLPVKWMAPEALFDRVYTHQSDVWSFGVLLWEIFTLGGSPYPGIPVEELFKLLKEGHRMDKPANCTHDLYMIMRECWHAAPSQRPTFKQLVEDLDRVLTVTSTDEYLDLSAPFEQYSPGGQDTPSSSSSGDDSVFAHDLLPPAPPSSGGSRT
A further assay has as its target FGFR1 (UP) (Homo sapiens (Human), UniProt P11362). The assay can be described thus: FGFR Enzymatic Assay, FGFR1 un-phosphorylated.
Setting [1] is: read-out: ALK2 3 μM IC50, 3 uM ATP.
Setting [2] is: read-out: ALK2 100 μM IC50, 100 uM ATP.
[3] abbreviates: read-out: ALK2 1 mM IC50, 1 mM ATP.
[4] abbreviates: read-out: FGFR3 (UP) IC50, un-phosphorylated enzyme, ATP near or below Km.
[5] abbreviates: read-out: FGFR1 (UP) IC50, un-phosphorylated enzyme, ATP near or below Km.

Chain of FGFR1 (UP) (P11362 22-822): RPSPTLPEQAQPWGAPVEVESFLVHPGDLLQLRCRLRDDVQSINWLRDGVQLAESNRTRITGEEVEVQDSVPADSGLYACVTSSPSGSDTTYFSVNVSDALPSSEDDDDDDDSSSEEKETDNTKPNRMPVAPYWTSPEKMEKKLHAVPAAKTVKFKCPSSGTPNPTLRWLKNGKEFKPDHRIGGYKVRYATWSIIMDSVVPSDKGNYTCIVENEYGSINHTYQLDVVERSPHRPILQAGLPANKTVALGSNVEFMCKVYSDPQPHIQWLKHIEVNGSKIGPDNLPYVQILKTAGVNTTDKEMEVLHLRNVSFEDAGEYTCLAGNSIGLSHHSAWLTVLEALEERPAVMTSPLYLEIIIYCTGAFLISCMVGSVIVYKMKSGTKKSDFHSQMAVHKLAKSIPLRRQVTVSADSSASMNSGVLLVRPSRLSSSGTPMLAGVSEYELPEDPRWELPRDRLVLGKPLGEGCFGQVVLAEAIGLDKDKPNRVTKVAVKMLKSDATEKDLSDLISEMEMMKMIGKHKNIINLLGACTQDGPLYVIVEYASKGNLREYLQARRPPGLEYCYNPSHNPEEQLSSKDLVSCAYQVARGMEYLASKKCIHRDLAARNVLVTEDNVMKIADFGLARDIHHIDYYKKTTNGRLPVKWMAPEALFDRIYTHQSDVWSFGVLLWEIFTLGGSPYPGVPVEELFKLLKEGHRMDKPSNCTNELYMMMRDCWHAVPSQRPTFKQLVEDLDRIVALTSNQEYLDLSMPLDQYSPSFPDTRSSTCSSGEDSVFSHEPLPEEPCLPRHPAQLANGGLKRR
Chain of ALK2 (aa 147-end) (Q04771 147-509): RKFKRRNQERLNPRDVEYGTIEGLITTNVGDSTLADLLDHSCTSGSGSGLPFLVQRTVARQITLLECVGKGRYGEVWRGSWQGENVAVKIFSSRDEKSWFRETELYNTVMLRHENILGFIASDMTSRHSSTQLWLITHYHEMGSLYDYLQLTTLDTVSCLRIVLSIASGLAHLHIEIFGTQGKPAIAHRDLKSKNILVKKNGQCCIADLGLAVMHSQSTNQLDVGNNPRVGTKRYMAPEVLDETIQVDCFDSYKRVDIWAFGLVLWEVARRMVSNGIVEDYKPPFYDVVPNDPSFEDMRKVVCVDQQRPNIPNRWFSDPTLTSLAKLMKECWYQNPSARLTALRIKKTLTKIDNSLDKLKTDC
Chain of ALK2 (Q04771 21-509): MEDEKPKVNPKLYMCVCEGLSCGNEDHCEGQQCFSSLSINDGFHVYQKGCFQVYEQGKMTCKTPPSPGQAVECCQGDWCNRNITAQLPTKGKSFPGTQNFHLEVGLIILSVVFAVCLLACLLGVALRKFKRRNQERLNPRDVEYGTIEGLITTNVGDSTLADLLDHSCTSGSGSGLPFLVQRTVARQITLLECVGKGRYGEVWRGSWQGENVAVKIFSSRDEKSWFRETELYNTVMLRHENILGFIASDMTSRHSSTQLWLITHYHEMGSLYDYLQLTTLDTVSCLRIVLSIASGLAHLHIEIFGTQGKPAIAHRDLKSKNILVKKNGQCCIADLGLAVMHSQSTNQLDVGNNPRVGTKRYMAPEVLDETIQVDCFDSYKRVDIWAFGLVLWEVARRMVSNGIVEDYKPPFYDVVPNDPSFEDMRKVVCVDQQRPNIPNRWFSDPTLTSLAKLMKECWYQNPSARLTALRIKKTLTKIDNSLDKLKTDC
Description for FGFR2 (P): (§1) The inhibitor potency of the exemplified compounds was determined in an enzyme discontinuous assay that measures peptide phosphorylation using FRET measurements to detect product formation. Inhibitors were serially diluted in DMSO and a volume of 0.2 μL was transferred to the wells of a 384-well plate. For the isoforms of FGFR (−1, −2, −3 wild-type and mutant isoforms, −4) including phosphorylated (P) and un-phosphorylated (UP) proteins, a 5 μL/well volume of enzyme diluted in assay buffer (50 mM HEPES, 10 mM MgCl2, 1 mM EGTA, 0.01% Tween-20, 5 mM DTT, pH 7.5) was added to the plate and pre-incubated with inhibitor for 5 to 15 minutes at ambient temperature. Appropriate controls (enzyme blank and enzyme with no inhibitor) were included on the plate. The reaction was initiated by the addition of a 5 μL/well volume containing both biotinylated [sequence] […] The plate was allowed to equilibrate for −10 minutes at ambient temperature before scanning on a PheraStar plate reader (BMG Labtech) instrument.
(§2) Either GraphPad prism or XLfit was used to analyze the data. The IC50 values were derived by fitting the data to a four parameter logistic equation producing a sigmoidal dose-response curve with a variable Hill coefficient. Prism equation: Y=Bottom+(Top−Bottom)/(1+10^((LogIC50−X)*Hill slope)); XLfit equation: Y=(A+((B−A)/(1+((X/C)^D)))) where X is the logarithm of inhibitor concentration and Y is the response.
Description for FGFR3 (UP): as §1, §2

At FGFR2 (P) (FGFR2 (P) IC50 (nM)), `CN1CC2CCC(C1=O)N2c1ncc2[nH]nc(-c3cnn(C4CCC4)c3)c2n1` (single isomer, unassigned) [Example 63, 8-(3-(1-Cyclobutyl-1H-pyrazol-4-yl)-1H-pyrazolo[4,3-d]pyrimidin-5-yl)-3-methyl-3,8-diazabicyclo[3.2.1]octan-2-one] yielded an IC50 of 500 to 2000 nM.

For the compound `C[C@@H]1CN(c2ccc(-c3n[nH]c4cnc(N5[C@H](C)CCC[C@@H]5C)nc34)cn2)CCN1` [Example 1, 5-((2R,6S)-2,6-Dimethylpiperidin-1-yl)-3-(6-((R)-3-methylpiperazin-1-yl)pyridin-3-yl)-1H-pyrazolo[4,3-d]pyrimidine], the IC50 on ALK2 (aa 147-end) (setting [1]) is less than 100 nM; at ALK2 (aa 147-end) (setting [2]), less than 100 nM; at ALK2 (aa 147-end) (setting [3]), less than 100 nM; at ALK2, 100 to 500 nM; on FGFR2 (P) (read-out: FGFR2 (P) IC50) it was less than 100 nM; on FGFR3 (UP) (setting [4]) it was less than 100 nM. Besides, the IC50 on FGFR1 (UP) was 100 to 500 nM.

Take `C[C@@H]1CN(c2ccc(-c3n[nH]c4cnc(N5[C@H](C)COC[C@@H]5C)nc34)cn2)CCN1` [Example 2, (3R,5S)-3,5-Dimethyl-4-(3-(6-((R)-3-methylpiperazin-1-yl)pyridin-3-yl)-1H-pyrazolo[4,3-d]pyrimidin-5-yl)morpholine]: the IC50 against ALK2 (aa 147-end) (ALK2 100 μM IC50, 100 uM ATP) is 100 to 500 nM; on ALK2 (aa 147-end) (ALK2 1 mM IC50, 1 mM ATP), 500 to 2000 nM; at ALK2 (aa 147-end) (setting [1]), less than 100 nM; on ALK2, 100 to 500 nM; on FGFR2 (P) (FGFR2 (P) IC50 (nM)), 100 to 500 nM; on FGFR3 (UP) (setting [4]), less than 100 nM. At FGFR1 (UP), the IC50 lay in the range of 100 to 500 nM.

On to `C[C@@H]1CN(c2ccc(-c3n[nH]c4cnc(N5[C@@H]6CCC[C@H]5[C@@H](O)C6)nc34)cn2)CCN1` [Example 4, (1R,5S,6S)-8-(3-(6-((R)-3-Methylpiperazin-1-yl)pyridin-3-yl)-1H-pyrazolo[4,3-d]pyrimidin-5-yl)-8-azabicyclo[3.2.1]octan-6-ol], for which the IC50 at ALK2 (aa 147-end) (setting [1]) was less than 100 nM; on ALK2 (aa 147-end) (setting [2]) it was less than 100 nM; on ALK2 (aa 147-end) (setting [3]), less than 100 nM; at ALK2 it was 100 to 500 nM; on FGFR2 (P) (read-out: FGFR2 (P) IC50), less than 100 nM; on FGFR3 (UP) (setting [4]), less than 100 nM. Further, at FGFR1 (UP), the IC50 lay within 100 to 500 nM.

`C[C@@H]1CN(c2ccc(-c3n[nH]c4cnc(N5[C@H](C)CN(C(=O)N(C)C)C[C@@H]5C)nc34)cn2)CCN1` [Example 8, (3R,5S)—N,N,3,5-tetramethyl-4-(3-(6-((R)-3-methylpiperazin-1-yl)pyridin-3-yl)-1H-pyrazolo[4,3-d]pyrimidin-5-yl)piperazine-1-carboxamide]: the IC50 was less than 100 nM at ALK2 (aa 147-end) (setting [1]), less than 100 nM at ALK2 (aa 147-end) (setting [2]), less than 100 nM at ALK2 (aa 147-end) (setting [3]) and 100 to 500 nM on ALK2.

On to `COC(=O)N1C[C@@H](C)N(c2ncc3[nH]nc(-c4ccc(N5CCN(C)CC5)cc4)c3n2)[C@@H](C)C1` [Example 22, Methyl (3R,5S)-3,5-dimethyl-4-(3-(4-(4-methylpiperazin-1-yl)phenyl)-1H-pyrazolo[4,3-d]pyrimidin-5-yl)piperazine-1-carboxylate], for which the IC50 on ALK2 (aa 147-end) (setting [1]), at ALK2 (aa 147-end) (setting [2]), at ALK2 (aa 147-end) (setting [3]) and on ALK2 was less than 100 nM in each case.

On to `CCN1CCN(c2ccc(-c3n[nH]c4cnc(N5[C@H](C)CN(C(=O)OC)C[C@@H]5C)nc34)cc2C)CC1` [Example 25, Methyl (3R,5S)-4-(3-(4-(4-ethylpiperazin-1-yl)-3-methylphenyl)-1H-pyrazolo[4,3-d]pyrimidin-5-yl)-3,5-dimethylpiperazine-1-carboxylate], for which the IC50 at ALK2 (aa 147-end) (setting [1]) is less than 100 nM; on ALK2 (aa 147-end) (setting [2]) it was less than 100 nM; on ALK2, 100 to 500 nM.

`COC(=O)N1C[C@@H](C)N(c2ncc3[nH]nc(-c4ccc(C5CCN(C)C5)cc4)c3n2)[C@@H](C)C1` (stereo partly drawn) [Example 27, Methyl (3R,5S)-3,5-dimethyl-4-(3-(4-(1-methylpyrrolidin-3-yl)phenyl)-1H-pyrazolo[4,3-d]pyrimidin-5-yl)piperazine-1-carboxylate]: the IC50 was 100 to 500 nM at ALK2 (aa 147-end) (ALK2 1 mM IC50, 1 mM ATP); less than 100 nM on ALK2 (aa 147-end) (setting [1]); 100 to 500 nM at ALK2.

With `COC(=O)N1C[C@@H](C)N(c2ncc3[nH]nc(-c4ccc(N5CCN6C[C@@H](O)C[C@@H]6C5)cc4)c3n2)[C@@H](C)C1` [Example 35, Methyl (3R,5S)-4-(3-(4-((7S,8aR)-7-hydroxyhexahydropyrrolo[1,2-a]pyrazin-2(1H)-yl)phenyl)-1H-pyrazolo[4,3-d]pyrimidin-5-yl)-3,5-dimethylpiperazine-1-carboxylate], the IC50 against ALK2 (aa 147-end) (ALK2 1 mM IC50, 1 mM ATP) is 100 to 500 nM; at ALK2 (aa 147-end) (setting [1]), less than 100 nM; at ALK2, 100 to 500 nM.

Turning to `CN1CCN(c2ncc3[nH]nc(-c4cnn(C)c4)c3n2)CC1=O` [Example 36, 1-Methyl-4-(3-(1-methyl-1H-pyrazol-4-yl)-1H-pyrazolo[4,3-d]pyrimidin-5-yl)piperazin-2-one], the IC50 at ALK2 (aa 147-end) (ALK2 3 μM IC50, 3 uM ATP) fell in the range of 500 to 2000 nM; against ALK2 (aa 147-end) (ALK2 100 μM IC50, 100 uM ATP) it was 500 to 2000 nM; against FGFR2 (P) (FGFR2 (P) IC50 (nM)), 100 to 500 nM.

For `Cn1cc(-c2n[nH]c3cnc(N4CCN(C5CC5)C(=O)C4)nc23)cn1` [Example 37, 1-Cyclopropyl-4-(3-(1-methyl-1H-pyrazol-4-yl)-1H-pyrazolo[4,3-d]pyrimidin-5-yl)piperazin-2-one], the IC50 is 500 to 2000 nM on FGFR2 (P) (FGFR2 (P) IC50 (nM)), 100 to 500 nM against FGFR3 (UP) and greater than 2000 nM on FGFR1 (UP) (setting [5]).

As to `CC1C(=O)N(C)CCN1c1ncc2[nH]nc(-c3cnn(C)c3)c2n1` (stereo not drawn) [Example 38, 1,3-Dimethyl-4-(3-(1-methyl-1H-pyrazol-4-yl)-1H-pyrazolo[4,3-d]pyrimidin-5-yl)piperazin-2-one], the IC50 at ALK2 (aa 147-end) (ALK2 3 μM IC50, 3 uM ATP) was 100 to 500 nM; against ALK2 (aa 147-end) (ALK2 100 μM IC50, 100 uM ATP) it was 500 to 2000 nM; at FGFR2 (P) (read-out: FGFR2 (P) IC50), less than 100 nM.

For `CC1c2nccn2CCN1c1ncc2[nH]nc(-c3cnn(C)c3)c2n1` (stereo not drawn) [Example 43, 3-(1-Methyl-1H-pyrazol-4-yl)-5-(8-methyl-5,6-dihydroimidazo[1,2-a]pyrazin-7(8H)-yl)-1H-pyrazolo[4,3-d]pyrimidine], the results for the IC50 against FGFR2 (P) (FGFR2 (P) IC50 (nM)), against FGFR3 (UP) and at FGFR1 (UP) were 100 to 500 nM, 100 to 500 nM and 500 to 2000 nM, respectively.

Regarding `COCCN1CCN(c2ncc3[nH]nc(-c4cnn(C)c4)c3n2)C(C)C1=O` (stereo not drawn) [Example 48, 1-(2-Methoxyethyl)-3-methyl-4-(3-(1-methyl-1H-pyrazol-4-yl)-1H-pyrazolo[4,3-d]pyrimidin-5-yl)piperazin-2-one], the IC50 at FGFR2 (P) (FGFR2 (P) IC50 (nM)) is 500 to 2000 nM; on FGFR3 (UP) it was 100 to 500 nM; at FGFR1 (UP) (setting [5]) it was greater than 2000 nM.

Take `COCCn1cc(-c2n[nH]c3cnc(N4C5CCC4C(=O)N(C)C5)nc23)cn1` (stereo not drawn) [Example 53, 8-(3-(1-(2-Methoxyethyl)-1H-pyrazol-4-yl)-1H-pyrazolo[4,3-d]pyrimidin-5-yl)-3-methyl-3,8-diazabicyclo[3.2.1]octan-2-one]: on FGFR2 (P) (read-out: FGFR2 (P) IC50), the IC50 is less than 100 nM.

On to `CN1CC2CCC(C1=O)N2c1ncc2[nH]nc(-c3cnn(C4CCOCC4)c3)c2n1` (stereo not drawn) [Example 54, 3-Methyl-8-(3-(1-(tetrahydro-2H-pyran-4-yl)-1H-pyrazol-4-yl)-1H-pyrazolo[4,3-d]pyrimidin-5-yl)-3,8-diazabicyclo[3.2.1]octan-2-one], for which, on FGFR2 (P) (read-out: FGFR2 (P) IC50), the IC50 is less than 100 nM.

For `CN1CC2CCC(C1=O)N2c1ncc2[nH]nc(-c3cnn([C@H]4CC[C@H](O)CC4)c3)c2n1` (stereo partly drawn) [Example 55, 8-(3-(1-((1r,4S)-4-Hydroxycyclohexyl)-1H-pyrazol-4-yl)-1H-pyrazolo[4,3-d]pyrimidin-5-yl)-3-methyl-3,8-diazabicyclo[3.2.1]octan-2-one], the IC50 on FGFR2 (P) (read-out: FGFR2 (P) IC50) was less than 100 nM.

On to `CN1CC2CCC(C1=O)N2c1ncc2[nH]nc(-c3cnn(CCN4CCOCC4)c3)c2n1` (stereo not drawn) [Example 58, 3-Methyl-8-(3-(1-(2-morpholinoethyl)-1H-pyrazol-4-yl)-1H-pyrazolo[4,3-d]pyrimidin-5-yl)-3,8-diazabicyclo[3.2.1]octan-2-one], for which the IC50 was 500 to 2000 nM on ALK2 (aa 147-end) (ALK2 3 μM IC50, 3 uM ATP); 500 to 2000 nM against ALK2 (aa 147-end) (ALK2 100 μM IC50, 100 uM ATP); less than 100 nM at FGFR2 (P) (read-out: FGFR2 (P) IC50).
